Experimental data published in patent US10406385B2 (Northwestern University, priority 2014, dated 2019).

Experiments:
[1] = no adverse reactions in any species even at large doses; cited from earlier work
injured skin = settings: topical application at concentrations of 2-5%; cited from earlier work
[2] = system: Human umbilical vein endothelial cells (HUVEC); experiment: Effect of panthenol citrate oligomers on cell viability, HUVEC; type: cell-based; settings: higher concentrations (1 mg/ml), 24 hours
Description: Human umbilical vein endothelial cells (HUVEC) (Lonza, Walkersville, Md.), adult human epidermal keratinocytes (HEKa) (Gibco, Carlsbad, Calif.), and human dermal fibroblast (HDF) (Lonza, Walkersville, Md.) were cultured in SmGM-2, Keratinocyte-SFM and DMEM, respectively, in a humidified incubator equilibrated with 5% CO2 at 37° C. Cells were seeded at a density of 1×10^4 cells/ml in 96-well tissue culture plates.

| SMILES | toxicities [1] | regeneration of injured skin (injured skin) | HUVEC cell survival [2] |
| --- | --- | --- | --- |
| CC(C)(CO)C(O)C(=O)NCCCO (racemic) [panthenol, DL-panthenol] | negligible | stimulate the regeneration of injured skin | – |
| O=C(O)CC(O)(CC(=O)O)C(=O)O [citric acid, Citric acid] | – | – | died within 24 hours |
